Measured values as given in patent publication US9034916B2, “Pharmaceutical composition for the prevention or treatment of a neurodegenerative disease, comprising a Daphne genkwa extract or a compound isolated therefrom” (Korea Research Institute of Bioscience and Biotechnology, priority 2011, dated 2015).

Target: T1, Nurr1 protein (Homo sapiens, UniProt P43354)
T1 construct: three kinds of plasmid DNAs, including a DNA comprising Nurr1-LBD and a DNA having β-galactosidase, were transfected into BE(2)C cells; expressed in transfected cells; host or cells: BE(2)C human neuroblastoma cells
T1 sequence (P43354 360-595 limits assumed): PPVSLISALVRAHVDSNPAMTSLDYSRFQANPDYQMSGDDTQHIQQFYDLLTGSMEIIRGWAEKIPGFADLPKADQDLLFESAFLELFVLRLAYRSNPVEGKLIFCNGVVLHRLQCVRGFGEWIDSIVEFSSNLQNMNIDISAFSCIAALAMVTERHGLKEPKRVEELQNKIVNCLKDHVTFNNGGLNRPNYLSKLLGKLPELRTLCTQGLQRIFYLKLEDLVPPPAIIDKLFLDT
Assay: Nurr1 luciferase reporter assay in BE(2)C cells transfected with Nurr1-LBD
Assay type: cell-based
Protocol: A gene comprising eight repeats of a nucleotide sequence (5′-CTCGGAGGACAGTACTCCG-3, SEQ ID NO: 1) to which GLA4 gene can bind was linked to the reporter gene luciferase to synthesize a vector. Then, three kinds of plasmid DNAs, including a DNA comprising Nurr1-LBD and a DNA having β-galactosidase, were transfected into BE(2)C cells, and after 6 hours, the cells were treated with 1-200 ppm of the Daphne genkwa extract. The treated cells were incubated in a 5% CO2 incubator at 37° C. for 20 hours, and then subjected to a luciferase assay (FIG. 1).
FIG. 1 is a graphic diagram showing the results of a luciferase assay conducted to examine the change in Nurr1 protein activity as a function of the concentration of the Daphne genkwa extract. As a control, 0.1% DMSO was used, and the increase in activity was expressed as folds of the activity of the control. […]
The effects of the Daphne genkwa extract fractions, obtained using various solvents in Example 2, on Nurr1 protein activity, were analyzed according to a method similar to the method described in Example 3. […]
According to a method similar to the method described in Example 3, the concentration dependences of the effects of genkwanine N and yuanhuacine on the activity of Nurr1 protein were analyzed, and the results of the analysis are shown in FIG. 5.

SMILES | increase of activity of Nurr1 protein (16 nM (corresponding to 0.01 ppm)) | increase of activity of Nurr1 protein (15 nM (corresponding to 0.01 ppm))
C=C(C)[C@]12C[C@@H](C)[C@@]34OC(c5ccccc5)(O[C@@H]1[C@@H]3[C@@H]1O[C@]1(CO)[C@@H](O)[C@@]1(O)[C@H]4C[C@H](C)[C@@H]1OC(=O)c1ccccc1)O2 [genkwanine N] | 60% | –
C=C(C)[C@@]12OC3(/C=C/C=C/CCCCC)O[C@@H]1[C@@H]1[C@@H]4O[C@]4(CO)[C@@H](O)[C@]4(O)C(=O)C(C)=C[C@H]4[C@@]1(O3)[C@H](C)[C@H]2OC(=O)c1ccccc1 [yuanhuacine] | – | 70%
